Read-outs that look alike come from different tables or passages of the source.
Experiments:
[1] = tested on: S. Typhimurium 14028; experiment: Anti-intracellular Salmonella activity in infected RAW264.7 cells (HCA); assay type: cell-based, Salmonella Typhimurium; settings: for Selectivity ratio (IC50/EC50): IC50 RAW264.7 / EC50 S. Typhimurium 14028
[2] = tested on: RAW264.7; experiment: Cytotoxicity in RAW264.7 cells (HCA, MTT cell viability assay); assay type: cell-based
Procedure: The cell viability was evaluated using HCA and an MTT cell viability assay, and the data are expressed as a percentage relative to the untreated control and are presented as the mean±SD (n=3 per group).

[3] = Salmonella enterica, TYPHIMURIUM, RAW264.7, read-out: EC50 (μM) S. Typhimurium 14028, intracellular Salmonella in infected RAW264.7 cells
[4] = Mus musculus, RAW264.7, read-out: IC50 (μM) RAW264.7
[5] = Salmonella enterica, TYPHIMURIUM, intracellular Salmonella in infected RAW264.7 cells, read-out: EC50 (μM) S. Typhimurium 14028
[6] = Mus musculus, cytotoxicity, RAW264.7 cells, read-out: IC50 (μM) RAW264.7

Row | Molecule | Selectivity ratio (IC50/EC50) [1] | EC50 [1, 3] [µM] | IC50 [2, 4] [µM] | EC50 [1, 5] [µM] | IC50 [2, 6] [µM] | EC50 ([1]; intracellular Salmonella in infected RAW264.7 cells, read-out: EC50 (μM) S. Typhimurium 14028) [µM] | IC50 ([2]; cytotoxicity, RAW264.7 cells, read-out: IC50 (μM) RAW264.7) [µM]
1 | Clc1ccc2c(c1)C(NCCc1cccnc1)=Nc1ccccc1O2 [SW5, 2-chloro-N-(2-(pyridin-3-yl)ethyl)dibenzo[b,f][1,4]oxazepin-11-amine] | 1.9 | 38.2 | 74 | – | – | – | –
2 | Cc1cc2c(s1)Nc1ccccc1N=C2NCCCN(C)C [SW43, N1,N1-dimethyl-N3-(2-methyl-10H-benzo[b]thieno[2,3-e][1,4]diazepin-4-yl)propane-1,3-diamine] | 82.1 | 1.2 | 102 | – | – | – | –
3 | CCCCCNC1=Nc2ccccc2Oc2ccc(Cl)cc21 [SW8, 2-chloro-N-pentyldibenzo[b,f][1,4]oxazepin-11-amine] | 1.3 | 54.1 | 72.7 | – | – | – | –
4 | Clc1ccc2c(c1)C(NCc1ccccc1)=Nc1ccccc1O2 [SW9, N-benzyl-2-chlorodibenzo[b,f][1,4]oxazepin-11-amine] | 3.1 | 19.7 | 60.8 | – | – | – | –
5 | c1ccc2c(c1)N=C(NCCCN1CCCC1)c1ccccc1N2 [SW33, N-(3-(pyrrolidin-1-yl)propyl)-5H-dibenzo[b,e][1,4]diazepin-11-amine] | 213.4 | 0.7 | 143 | – | – | – | –
6 | CN1CCN(CCCNC2=Nc3cccnc3Nc3ccc(Cl)cc32)CC1 [SW31, 8-chloro-N-(3-(4-methylpiperazin-1-yl)propyl)-11H-benzo[e]pyrido[3,2-b][1,4]diazepin-6-amine] | 18.7 | – | – | 7 | 129 | – | –
7 | CN1CCCC1CCNC1=Nc2ccccc2Oc2ccc(Cl)cc21 (stereo not shown) [SW6, 2-chloro-N-(2-(1-methylpyrrolidin-2-yl)ethyl)dibenzo[b,f][1,4]oxazepin-11-amine] | 18.9 | 1.2 | 23 | – | – | – | –
8 | Fc1ccc(CCNC2=Nc3ccccc3Oc3ccc(Cl)cc32)cc1 [SW19, 2-chloro-N-(4-fluorophenethyl)dibenzo[b,f][1,4]oxazepin-11-amine] | 1.8 | 61.5 | 112 | – | – | – | –
9 | Clc1ccc2c(c1)C(NCCCN1CCCC1)=Nc1cccnc1N2 [SW29, 8-chloro-N-(3-(pyrrolidin-1-yl)propyl)-11H-benzo[e]pyrido[3,2-b][1,4]diazepin-6-amine] | 18.8 | – | – | 5.3 | 101 | – | –
10 | Clc1ccc2c(c1)C(NCCN1CCCCC1)=Nc1cccnc1N2 [SW21, 8-chloro-N-(2-(piperidin-1-yl)ethyl)-11H-benzo[e]pyrido[3,2-b][1,4]diazepin-6-amine] | 11.0 | – | – | 5.8 | 63.6 | – | –
11 | CN1CCCC1CCNC1=Nc2cccnc2Nc2ccc(Cl)cc21 (stereo not shown) [SW25, 8-chloro-N-(2-(1-methylpyrrolidin-2-yl)ethyl)-11H-benzo[e]pyrido[3,2-b][1,4]diazepin-6-amine] | 26.2 | – | – | 3.3 | 85.5 | – | –
12 | Clc1ccc2c(c1)C(NCCN1CCCCC1)=Nc1ccccc1O2 [SW3, 2-chloro-N-(2-(piperidin-1-yl)ethyl)dibenzo[b,f][1,4]oxazepin-11-amine] | 5.1 | 4.3 | 22.2 | – | – | – | –
13 | CN(C)CCNC1=Nc2ccccc2Oc2ccc(Cl)cc21 [SW1, N1-(2-chlorodibenzo[b,f][1,4]oxazepin-11-yl)-N2,N2-dimethylethane-1,2-diamine] | 9.5 | 3.6 | 34.6 | – | – | – | –
14 | Oc1ccc(CCNC2=Nc3ccccc3Oc3ccc(Cl)cc32)cc1 [SW12, 4-(2-((2-chlorodibenzo[b,f][1,4]oxazepin-11-yl)amino)ethyl)phenol] | 1.6 | 33.5 | 52.1 | – | – | – | –
15 | Cc1cc2c(s1)Nc1ccccc1N=C2NCCCN1CCCC1 [SW42, 2-methyl-N-(3-(pyrrolidin-1-yl)propyl)-10H-benzo[b]thieno[2,3-e][1,4]diazepin-4-amine] | 82.6 | 0.9 | 76.4 | – | – | – | –
16 | Clc1ccc2c(c1)C(NCCCN1CCCCC1)=Nc1cccnc1N2 [SW32, 8-chloro-N-(3-(piperidin-1-yl)propyl)-11H-benzo[e]pyrido[3,2-b][1,4]diazepin-6-amine] | 16.4 | – | – | 6.4 | 105 | – | –
17 | O=C1CCCN1CCCNC1=Nc2ccccc2Oc2ccc(Cl)cc21 [SW23, 1-(3-((2-chlorodibenzo[b,f][1,4]oxazepin-11-yl)amino)propyl)pyrrolidin-2-one] | >1.3 | > 90 | > 90 | – | – | – | –
18 | Clc1ccc2c(c1)C(NCCCN1CCCCC1)=Nc1ccccc1O2 [SW26, 2-chloro-N-(3-(piperidin-1-yl)propyl)dibenzo[b,f][1,4]oxazepin-11-amine] | 14.6 | 1.1 | 16.1 | – | – | – | –

Row | Molecule | Selectivity ratio (IC50/EC50) [1] | EC50 [1, 3] [µM] | IC50 [2, 4] [µM] | EC50 [1, 5] [µM] | IC50 [2, 6] [µM] | EC50 ([1]; intracellular Salmonella in infected RAW264.7 cells, read-out: EC50 (μM) S. Typhimurium 14028) [µM] | IC50 ([2]; cytotoxicity, RAW264.7 cells, read-out: IC50 (μM) RAW264.7) [µM]
19 | CC(C)CCNC1=Nc2ccccc2Oc2ccc(Cl)cc21 [SW18, 2-chloro-N-isopentyldibenzo[b,f][1,4]oxazepin-11-amine] | 1.3 | 55.1 | 70.1 | – | – | – | –
20 | Clc1ccc2c(c1)C(NCCc1ccccc1)=Nc1ccccc1O2 [SW7, 2-chloro-N-phenethyldibenzo[b,f][1,4]oxazepin-11-amine] | 2.7 | 21.2 | 56.3 | – | – | – | –
21 | Clc1ccc2c(c1)C(NCCN1CCCC1)=Nc1ccccc1O2 [SW2, 2-chloro-N-(2-(pyrrolidin-1-yl)ethyl)dibenzo[b,f][1,4]oxazepin-11-amine] | 5.4 | 4.9 | 26.6 | – | – | – | –
22 | CN(C)CCNC1=Nc2cccnc2Nc2ccc(Cl)cc21 [SW27, N1-(8-chloro-11H-benzo[e]pyrido[3,2-b][1,4]diazepin-6-yl)-N2,N2-dimeth ylethane-1,2-diamine] | >13.9 | – | – | 6.5 | > 90 | – | –
23 | O=C(CNC1=Nc2ccccc2Oc2ccc(Cl)cc21)N1CCCC1 [SW24, 2-((2-chlorodibenzo[b,f][1,4]oxazepin-11-yl)amino)-1-(pyrrolidin-1-yl)ethan-1-one] | – | > 90 | > 90 | – | – | – | –
24 | CCCNC1=Nc2ccccc2Oc2ccc(Cl)cc21 [SW13, 2-chloro-N-propyldibenzo[b,f][1,4]oxazepin-11-amine] | 2.0 | 56 | 112 | – | – | – | –
25 | Clc1ccc2c(c1)C(NCC1CC1)=Nc1ccccc1O2 [SW11, 2-chloro-N-(cyclopropylmethyl)dibenzo[b,f][1,4]oxazepin-11-amine] | 1.7 | 44 | 74 | – | – | – | –
26 | Clc1ccc2c(c1)C(NCCCN1CCCC1)=Nc1ccccc1O2 [SW22, 2-chloro-N-(3-(pyrrolidin-1-yl)propyl)dibenzo[b,f][1,4]oxazepin-11-amine] | 14.8 | 1.1 | 16.3 | – | – | – | –
27 | c1ccc2c(c1)N=C(NCCN1CCCCC1)c1ccccc1N2 [SW35, N-(2-(piperidin-1-yl)ethyl)-5H-dibenzo[b,e][1,4]diazepin-11-amine] | 29.3 | 3.8 | 111 | – | – | – | –
28 | Cc1cc2c(s1)Nc1ccccc1N=C2NCCN1CCNCC1 [SW41, 2-methyl-N-(2-(piperazin-1-yl)ethyl)-10H-benzo[b]thieno[2,3-e][1,4]diazepin-4-amine] | 26.8 | 3.9 | 105 | – | – | – | –
29 | Clc1ccc2c(c1)C(NCCN1CCCC1)=Nc1cccnc1N2 [SW28, 8-chloro-N-(2-(pyrrolidin-1-yl)ethyl)-11H-benzo[e]pyrido[3,2-b][1,4]diazepin-6-amine] | 6.8 | – | – | 9.3 | 63.2 | – | –
30 | CCC(CC)NC1=Nc2ccccc2Oc2ccc(Cl)cc21 [SW17, 2-chloro-N-(pentan-3-yl)dibenzo[b,f][1,4]oxazepin-11-amine] | 2.6 | 28.5 | 72.8 | – | – | – | –
31 | Cc1cc2c(s1)Nc1ccccc1N=C2NCCN1CCCCC1 [SW38, 2-methyl-N-(2-(piperidin-1-yl)ethyl)-10H-benzo[b]thieno[2,3-e][1,4]diazepin-4-amine] | 22.4 | 1.6 | 36.5 | – | – | – | –
32 | 2-chloro-11-(3-(3,4-dichlorophenyl)propyl)dibenzo[b,f][1,4]oxazepine [SW15] | – | – | – | – | – | 31.1 | 82.7
33 | Clc1ccc(CCNC2=Nc3ccccc3Oc3ccc(Cl)cc32)cc1 [SW20, 2-chloro-N-(4-chlorophenethyl)dibenzo[b,f][1,4]oxazepin-11-amine] | 2.0 | 45.1 | 91.6 | – | – | – | –
34 | Cc1cc2c(s1)Nc1ccccc1N=C2NCCN(C)C [SW39, N1,N1-dimethyl-N2-(2-methyl-10H-benzo[b]thieno[2,3-e][1,4]diazepin-4-yl)ethane-1,2-diamine] | 72.5 | 1.7 | 122 | – | – | – | –
35 | Clc1ccc2c(c1)C(NCCN1CCOCC1)=Nc1ccccc1O2 [SW4, 2-chloro-N-(2-morpholinoethyl)dibenzo[b,f][1,4]oxazepin-11-amine] | 2.6 | 32 | 84.7 | – | – | – | –
36 | Clc1ccc2c(c1)C(NCCc1ccncc1)=Nc1ccccc1O2 [SW16, 2-chloro-N-(2-(pyridin-4-yl)ethyl)dibenzo[b,f][1,4]oxazepin-11-amine] | 2.8 | 18.5 | 51.1 | – | – | – | –

From patent publication US11925650B2, “Antibacterial chemical compound, its manufacturing method and its use thereof” (National Taiwan University, priority 2022, dated 2024)
